Test results from patent US9468648B2, “Treatment including prebiotic composition for use with probiotics” (MASTER SUPPLEMENTS, INC., priority 2010, dated 2016).

How the values were obtained:
Assay type in all cases: cell-based
[1] = system: Lactobacillus acidophilus NCFM (LA-1); assay: Growth (turbidity) and lactic acid producing activity in MRS broth, L. acidophilus NCFM; settings: for pH: 0.1% in MRS (Polysorbate 80: 1.0 g/l)
Experimental: (§1) At specified time intervals, a 30 ml sample from each flask was aseptically transferred into a HACH […] Turbidimeter sample cell. The turbidity of each sample was read and the results were reported in NTU's. The same 30 ml sample used for the turbidity reading was transferred into a 250 ml glass beaker, and the pH was recorded. The sample was titrated using 0.1 N NaOH to an endpoint of pH 6.8, and the quantity of NaOH used was recorded. The % Lactic Acid was calculated using the following formula: % Lactic Acid=((mls of 0.1N NaOH)×(0.1N)×(90 gm/mole)×(1 L/1000 ml))×100 mls of sample % Lactic Acid=(mls of 0.1N NaOH)×(0.9) (Results reported at 12 hours and 23 hours like: 12/23 in Table I below)

[2] = system: Lactobacillus paracasei Lpc-37 (F-19); assay: Growth (turbidity) and lactic acid producing activity in MRS broth, L. paracasei Lpc-37
Experimental: as §1, with “Each flask was tempered to 37° C. and aseptically inoculated with 0.14 gm of the individual probiotic strains (in Examples 5 to 10 below) to be tested. At” for “At”, “III” for “I”

[3] = system: Lactobacillus rhamnosus-Lr-32 (LR-44); assay: Growth (turbidity) and lactic acid producing activity in MRS broth, L. rhamnosus Lr-32; settings: for pH: 0.1% in MRS (Polysorbate 80: 1.0 g/l)
Experimental: as §1, with “Each flask was tempered to 37° C. and aseptically inoculated with 0.14 gm of the individual probiotic strains (in Examples 5 to 10 below) to be tested. At” for “At”, “IV” for “I”

[4] = system: Lactobacillus salivarius-Ls-33 (LS-30); assay: Growth (turbidity) and lactic acid producing activity in MRS broth, L. salivarius Ls-33; settings: for pH: 0.1% in MRS (Polysorbate 80: 1.0 g/l)
Experimental: as §1, with “Each flask was tempered to 37° C. and aseptically inoculated with 0.14 gm of the individual probiotic strains (in Examples 5 to 10 below) to be tested. At” for “At”, “V” for “I”

[5] = system: THERALAC® Lot #32310A probiotic strains; assay: Growth of the commercial probiotic […] in MRS broth; settings: for pH: 0.1% in MRS (Polysorbate 80: 1.0 g/l)
Experimental: MRS broth was prepared with (for controls) and without (for tests) polysorbate 80 and filled into 1 liter screw cap flasks at 500 ml each and autoclaved at 121° C. for 30 minutes. Various lecithin and/or oleic acid additives, or nothing (negative control), was added to the tests flasks prior to autoclaving. The flasks were then tempered to 37° C. in a water bath and inoculated at 0.1% with […]® Lot #32310A, a commercial probiotic product (Master Supplements, Inc., Victoria, Minn.). Capsules of […]® were opened and the contents mixed aseptically to serve as the inoculum source. At an inoculation rate of 0.1%, approximately 80 million CFU was added per ml of MRS media. […]® contains (formulation strength) the following probiotic strains at the approximate CFU values listed per gram: Turbidity, pH and titrations (made with 0.1 N NaOH and reported as % lactic acid) were made at various times up to 23 hours. The results are presented below in Table VI for the 12 and 23-hour analyses.

[6] = system: Bifidobacterium lactis Bl-04 (BL-34); assay: Growth (turbidity) and lactic acid producing activity in MRS broth, B. lactis Bl-04; settings: 0.1% in MRS (Polysorbate 80: 1.0 g/l)
Experimental: as §1, with “Each flask was tempered to 37° C. and aseptically inoculated with 0.14 gm of the individual probiotic strains (in Examples 5 to 10 below) to be tested. At” for “At”, “II” for “I”

[7] = 0.1% in MRS (Polysorbate 80: 1.0 g/l), 12 hours

Molecule | effectiveness as polysorbate 80 replacement (growth and activity) ([1]; 0.1% inclusion rate) | effectiveness as polysorbate 80 replacement (growth and activity) ([2]; 0.1% inclusion rate) | effectiveness as polysorbate 80 replacement (growth and activity) ([3]; 0.1% inclusion rate) | effectiveness as polysorbate 80 replacement (growth and activity) ([4]; 0.1% inclusion rate) | effectiveness as polysorbate 80 replacement (growth and activity) ([5]; 0.1% inclusion rate) | pH ([1]; 12 hours) | pH ([1]; 23 hours) | Lactic Acid % ([6]; 12 hours) [%] | pH ([6]; 12 hours) | Lactic Acid % ([6]; 23 hours) [%] | pH ([6]; 23 hours) | Lactic Acid % [2, 7] [%] | pH [2, 7] | pH ([2]; 0.1% in MRS (Polysorbate 80: 1.0 g/l), 23 hours) | pH ([3]; 12 hours) | pH ([3]; 23 hours) | pH ([4]; 12 hours) | pH ([4]; 23 hours) | pH ([5]; 12 hours) | pH ([5]; 23 hours)
CCCCCCCC/C=C\CCCCCCCC(=O)O [Oleic Acid, oleic acid] | somewhat effective as a polysorbate 80 replacement | not as effective a replacement for polysorbate 80 as sunflower lecithin | not as good a replacement for polysorbate 80 as sunflower lecithin | not as good a replacement | acceptable replacement value for polysorbate 80 |  |  |  |  |  |  |  |  |  |  |  |  |  |  | 
polysorbate 80 |  |  |  |  |  | 4.2 | 4.1 | 0.57 | 4.8 | 0.84 | 4.5 | 0.99 | 4.2 | 3.9 | 4.0 | 3.7 | 3.8 | 3.7 | 3.9 | 3.7
